Experiments:
human skin tissue [1] = assay: Effect of proguanil on skin color of cultured human skin tissue; assay type: cell-based; conditions: proguanil 150, 180, 210, 240, 270 or 300 μM; Day 5; versus DMSO; FIG. 12
Procedure: A normal human skin tissue, which was obtained at the time of surgical operation, was provided by a medical college (department of plastic surgery). The human skin tissue, from which subcutaneous fat was previously trimmed, was cut into small pieces having a size of about 1 cm×1 cm by knife. The small pieces were cultured by using a 6-well plate at 37° C. under a 5 vol % CO2 atmospheric conditions. In the culture, Advanced DMEM medium containing a 10% (v/v) Fetal Bovine Serum (FBS) (Thermo Fisher Scientific, respectively) was used. A human skin tissue was allowed to stand still in a 6-well plate. Proguanil was added in the medium at a final concentration of 150, 180, 210, 240, 270 or 300 μM and then tissue culture was performed. As a control, DMSO was added in the same amount. Medium replacement was carried out every 2 to 3 days. Day 5 after initiation of the culture, the appearance of the skin tissue was observed and photographed.

human skin tissue [2] = assay: Fontana-Masson staining of skin tissue cultured with proguanil; assay type: cell-based; conditions: proguanil 180 μM; 5 days; versus DMSO control; FIG. 13 upper stage
Procedure: (§1) The human skin tissue, from which subcutaneous fat was previously trimmed, was cut into small pieces having a size of about 1 cm×1 cm by knife. The small pieces were cultured by using a 6-well plate at 37° C. under a 5 vol % CO2 atmospheric conditions. In the culture, Advanced DMEM medium containing a 10% (v/v) Fetal Bovine Serum (FBS) (Thermo Fisher Scientific, respectively) was used. […] More specifically, the skin tissue was embedded in paraffin and the resultant paraffine block was sliced to prepare paraffin sections of 5 μm in thickness. A Fontana ammonia silver solution (manufactured by MUTO PURE CHEMICALS Co., Ltd.) was allowed to react at room temperature for two hours to visually distinguish melanin granules. Thereafter, nuclear staining was performed using Kernechtrot solution (manufactured by MUTO PURE CHEMICALS Co., Ltd.). […] At the same time, HE staining was carried out.

human skin tissue [3] = assay: HE staining of skin tissue cultured with proguanil (tissue damage); assay type: cell-based; conditions: proguanil 180 μM; 5 days; FIG. 13 lower stage
Procedure: as §1

[4] = test system: melanocytes (HEMn-LP, HEMn-DP); assay: Intracellular melanin amount of melanocytes in melanocyte single culture system; assay type: cell-based, human; conditions: melanocytes (lightly and darkly); proguanil 3, 10 or 30 μM; 7 days; versus DMSO; FIGS. 15A, 15B
Procedure: Normal human neonatal foreskin-derived epidermal melanocytes (Human Epidermal Melanocytes, neonatal, lightly pigmented donor (HEMn-LP) and Human Epidermal Melanocytes, neonatal, darkly pigmented donor (HEMn-DP); melanocytes (lightly) and melanocytes (darkly)), a growth medium for epidermal melanocytes (Medium254) and a growth additive (HMGS) for the medium were purchased from Thermo Fisher Scientific. Melanocytes were cultured at 37° C. in 5 vol % CO2 atmospheric conditions. Melanocytes (lightly and darkly) were seeded in 6-well plates at a cell density of 2×10^5 cells/well (2 mL/well). […] The following day, proguanil was added at a final concentration of 3, 10 or 30 μM and culture was performed at 37° C. in 5 vol % CO2 atmospheric conditions for 7 days. As a control, the same amount of DMSO was added. Note that medium replacement was carried out every 2 to 3 days. After completion of culture, the cell culture plates were washed with PBS and the cells were collected by use of a cell scraper in 1.5 mL micro tubes. To individual tubes, 2M NaOH (150 μL) was added and treatment was performed at 100° C. for 60 minutes to lyse the cells. Each of the lysates was centrifuged at a 21,640 g for 10 minutes at room temperature and the supernatant was recovered. The absorbance of the supernatant recovered was measured at a wavelength of 405 nm and the amount of melanin per well was calculated.

[5] = test system: keratinocytes and melanocytes; assay: Cellular respiratory chain (growth) activity in keratinocyte-melanocyte co-culture system; assay type: cell-based, human; conditions: concentration range of 30 μM or less, 4 days, FIGS. 16C, 16D
Description: Normal human neonatal foreskin-derived epidermal keratinocytes (Human Epidermal Keratinocytes, neonatal (HEKn) lightly; keratinocytes) and growth medium (Epilife) for epidermal keratinocytes were purchased from Thermo Fisher Scientific. Growth additives (Humedia-KG) for a medium were purchased from Kurabo Industries Ltd. Normal human neonatal foreskin-derived epidermal melanocytes (Human Epidermal Melanocytes, neonatal, lightly pigmented donor (HEMn-LP) and Human Epidermal Melanocytes, neonatal, darkly pigmented donor (HEMn-DP); melanocytes (lightly) and melanocytes (darkly)) were purchased from Thermo Fisher Scientific. Keratinocytes and melanocytes were cultured at 37° C. in 5 vol % CO2 atmospheric conditions.
Keratinocytes were seeded in a 96-well plate at a cell density of 1×10^4 cells/well (100 μL/well). On the following day, melanocytes (lightly and darkly) were seeded at a cell density of 2×10^4 cells/well (100 μL/well). […] Culture was performed at 37° C. in a 5 vol % CO2 atmospheric conditions for 4 days. As a test medium at this time, Epilife was used, which contained Humedia-KG growth additive (insulin, hydrocortisone, BPE, gentamicin and amphotericin B) except a Human Epidermal Growth Factor (hEGF). […] After completion of culture, cellular respiratory chain (growth) activity and dopa oxidase activity were evaluated in the same manner as in Example 11.

Pmel17 = assay: Melanin (melanosome) decomposition in epidermal keratinocytes that incorporated MNT-1 melanosome fraction; assay type: cell-based, human; conditions: keratinocytes with incorporated melanosome, proguanil 10 or 30 μM, 2 days, FIG. 17
Procedure: Normal human neonatal foreskin-derived epidermal keratinocytes (Human Epidermal Keratinocytes, neonatal (HEKn) lightly; keratinocytes) were purchased from Thermo Fisher Scientific. Melanoma cell strain MNT-1 cells were given by Dr. […] (University La Sapienza, Rome, Italy). The keratinocytes were cultured in a grow medium (Epilife) epidermal keratinocytes (Thermo Fisher Scientific) supplemented with a growth additive (Humedia-KG) (manufactured by Kurabo Industries Ltd.) at 37° C. in 5 vol % CO2 atmospheric conditions. As a grow medium MNT-1 cells, RPMI1640 medium (Thermo Fisher Scientific) containing AIM-V medium and Fetal Bovine Serum (FES) each in an amount of 10% (v/v) was used and culture was performed at 37° C. in 5 vol % CO2 atmospheric conditions. A melanosome fraction was isolated and prepared from MNT-1 cells by a predetermined method (Murase et al. (2013), J Invest Dermatol, 133: 2416-2424). […] The resultant supernatant was subjected to quantitative determination of protein by BCA (bicinchoninic acid) method using Pierce BCA Protein Assay Kit (Thermo Fisher Scientific) and Bovine Serum Albumin (BSA) as a standard substance. […] Expression of β-actin as the internal standard was evaluated by using a monoclonal antibody specific for β-actin (Sigma-Aldrich, 1:5000). […]

LC3-II = assay: Autophagy activity of epidermal keratinocytes (LC3-II accumulation with chloroquine diphosphate, Western blotting); assay type: cell-based, human; conditions: proguanil 0.3, 1, 3, 10 or 30 μM in presence of 10 μM chloroquine diphosphate, FIG. 18
Procedure: Normal human neonatal foreskin-derived epidermal keratinocytes (Human Epidermal Keratinocytes, neonatal (HEKn) lightly; keratinocytes) were purchased from Thermo Fisher Scientific. […] The keratinocytes were cultured in a grow medium (Epilife) epidermal keratinocytes (Thermo Fisher Scientific) supplemented with a growth additive (Humedia-KG) (manufactured by Kurabo Industries Ltd.) at 37° C. in 5 vol % CO2 atmospheric conditions.
Keratinocytes were seeded in a 6-well plate at a density of 1.5×10^5 cells/well (2 mL/well). The following day, proguanil was added so as to obtain a final concentration of 0.3, 1, 3, 10 or 30 μM. Culture was performed at 37° C. in 5 vol % CO2 atmospheric conditions. As a control, the same amount of DMSO was added. […] The following day, Chloroquine diphosphate attached to LC3B Antibody Kit for Autophagy (Thermo Fisher Scientific) was added so as to obtain a final concentration of 10 μM. Culture was performed at 37° C. in 5 vol % CO2 atmospheric conditions for 24 hours. After completion of the culture, SDS-PAGE and western blotting were performed in accordance with the method as mentioned above. As a primary antibody, anti-LC3B (1:1000) attached to the kit mentioned above was used. […] Expression of β-actin as the internal standard was evaluated by using monoclonal antibody specific for β-actin (Sigma-Aldrich, 1:5000).

## [H]/N=C(\N/C(=N/[H])Nc1ccc(Cl)cc1)NC(C)C [proguanil, 1-(p-chlorophenyl)-5-isopropyl biguanide]
Human skin tissue [1]
  darkening of the skin color: induces darkening of the skin color in a dose-dependent manner
Human skin tissue [2]
  deposition of melanin in the epidermis: melanin is accumulated in a wider range of the epidermis
Human skin tissue [3]
  tissue damage (HE staining): no damage was induced in the tissue
[4]
  intracellular amount of melanin: does not increase intracellular amount of melanin
[5]
  cell toxicity (cellular respiratory chain activity): cell toxicity was not observed
Pmel17
  color density of the cell sediment: confirmed to be increased in a concentration-dependent manner
Pmel17; versus DMSO
  intensity of the band of Pmel17: is increased in a concentration-dependent manner
LC3-II
  accumulation of LC3-II: the accumulation was reduced by proguanil in a concentration-dependent manner

— patent US10966911B2, “Melanin decomposition inhibitor” (KAO CORPORATION, priority 2016, dated 2021)
